Key:
Mus musculus = test: Inhibition of lung metastasis in C57 mice injected with B16-BL6 melanoma cells at 30 mg/kg, ip; assay type: functional; details: route intraperitoneal
B16 = test: Inhibition of proliferation on B16-BL6 melanoma cells at 100 uM; assay type: functional; details: Mus musculus
[1] = Plasma concentration in mice after 1 hour of ip administration; assay type: ADME, organism-based; details: mouse
[2] = Plasma concentration in mice after 4 hours of ip administration; assay type: ADME, organism-based; details: mouse

SMILES: O=C(Nc1ccc(-c2nc3ccccc3[nH]2)cc1)Nc1ccc(-c2nc3ccccc3[nH]2)cc1
- inhibition in vivo at 30 mg/kg (Mus musculus): 50%
- inhibition at 100 µM (B16): < 50%
- concentration at 1 h [1]: 31 µM
- concentration at 4 h [2]: 23 µM
